Legend:
[1] = tested on: constitutive FGFR3 signaling; conditions: mouse model of achondroplasia; cited from earlier work
[2] = Toxicokinetics of infigratinib in juvenile rat plasma after oral gavage; type: in vivo, Crl:WI(Han) rat; conditions: for RAUC: AUC vs first dosing day; for AUC(0-t): female, Crl:WI(Han), rat, plasma, po, 0.1 mg/kg/day
[3] = Female rats, 0.1 mg/kg/day oral, PND 7
[4] = Female rats, 0.1 mg/kg/day oral, PND 12
[5] = Female rats, 0.1 mg/kg/day oral, PND 17
[6] = Female rats, 0.1 mg/kg/day oral, PND 23
[7] = Female rats, 0.1 mg/kg/day oral, PND 35
[8] = Female rats, 0.3 mg/kg/day oral, PND 7
[9] = Female rats, 0.3 mg/kg/day oral, PND 12
[10] = Female rats, 0.3 mg/kg/day oral, PND 17
[11] = Female rats, 0.3 mg/kg/day oral, PND 23
[12] = Female rats, 0.3 mg/kg/day oral, PND 35
[13] = Female rats, 1.0 mg/kg/day oral, PND 7
[14] = Female rats, 1.0 mg/kg/day oral, PND 12
[15] = Female rats, 1.0 mg/kg/day oral, PND 17
[16] = Female rats, 1.0 mg/kg/day oral, PND 23
[17] = Female rats, 1.0 mg/kg/day oral, PND 35
[18] = Male rats, 0.1 mg/kg/day oral, PND 7
[19] = Male rats, 0.1 mg/kg/day oral, PND 12
[20] = Male rats, 0.1 mg/kg/day oral, PND 17
[21] = Male rats, 0.1 mg/kg/day oral, PND 23
[22] = Male rats, 0.1 mg/kg/day oral, PND 35
[23] = Male rats, 0.3 mg/kg/day oral, PND 7
[24] = Male rats, 0.3 mg/kg/day oral, PND 12
[25] = Male rats, 0.3 mg/kg/day oral, PND 17
[26] = Male rats, 0.3 mg/kg/day oral, PND 23
[27] = Male rats, 0.3 mg/kg/day oral, PND 35
[28] = Male rats, 1.0 mg/kg/day oral, PND 7
[29] = Male rats, 1.0 mg/kg/day oral, PND 12
[30] = Male rats, 1.0 mg/kg/day oral, PND 17
[31] = Male rats, 1.0 mg/kg/day oral, PND 23
[32] = Male rats, 1.0 mg/kg/day oral, PND 35

For `CCN1CCN(c2ccc(Nc3cc(N(C)C(=O)Nc4c(Cl)c(OC)cc(OC)c4Cl)ncn3)cc2)CC1` [infigratinib, 3-(2,6-Dichloro-3,5-dimethoxy-phenyl)-1-{6-[4-(4-ethyl-piperazin-1-yl)-phenylamino]-pyrimidin-4-yl}-1-methyl-urea], the “Effect on limb length and calvarial defects” value [1] is listed as “increase limb length and improve calvarial defects”, the Cmax/D [2, 3] is listed as 41.8 (ng/mL)/(mg/kg/day) and the Tlast [2, 3] is listed as 24 h. The Cmax/D [2, 4] was 34.0 (ng/mL)/(mg/kg/day), the Tlast [2, 4] was 24 h and the RAUC [2, 4] was 0.941 ratio. For the same compound, the Cmax/D [2, 5] was 90.6 (ng/mL)/(mg/kg/day), the Tlast [2, 5] was 24 h and the RAUC [2, 5] was 0.839 ratio. The Cmax/D [2, 6] was 7.8 (ng/mL)/(mg/kg/day), the Tlast [2, 6] was 12 h and the RAUC [2, 6] was 0.108 ratio. The Cmax/D [2, 7] was 3.0 (ng/mL)/(mg/kg/day), the Tlast [2, 7] was 7 h and the RAUC [2, 7] was 0.0325 ratio. For the same compound, the Cmax/D [2, 8] was 64.7 (ng/mL)/(mg/kg/day), the Tlast [2, 8] was 24 h and the Cmax/D [2, 9] was 49.7 (ng/mL)/(mg/kg/day). The Tlast [2, 9] was 24 h, the RAUC [2, 9] was 0.751 ratio and the Cmax/D [2, 10] was 60.2 (ng/mL)/(mg/kg/day). For the same compound, the Tlast [2, 10] was 24 h, the RAUC [2, 10] was 0.548 ratio and the Cmax/D [2, 11] was 7.49 (ng/mL)/(mg/kg/day). The Tlast [2, 11] was 24 h, the RAUC [2, 11] was 0.103 ratio and the Cmax/D [2, 12] was 2.2 (ng/mL)/(mg/kg/day). The Tlast [2, 12] was 12 h, the RAUC [2, 12] was 0.0249 ratio and the Cmax/D [2, 13] was 53.2 (ng/mL)/(mg/kg/day). For the same compound, the Tlast [2, 13] was 24 h, the Cmax/D [2, 14] was 56.6 (ng/mL)/(mg/kg/day) and the Tlast [2, 14] was 24 h. The RAUC [2, 14] was 1.15 ratio, the Cmax/D [2, 15] was 41.2 (ng/mL)/(mg/kg/day) and the Tlast [2, 15] was 24 h. The RAUC [2, 15] was 0.974 ratio, the Cmax/D [2, 16] was 10.4 (ng/mL)/(mg/kg/day) and the Tlast [2, 16] was 24 h. The RAUC [2, 16] was 0.141 ratio, the Cmax/D [2, 17] was 4.04 (ng/mL)/(mg/kg/day) and the Tlast [2, 17] was 12 h. For the same compound, the RAUC [2, 17] was 0.0566 ratio, the Cmax/D [2, 18] was 32.1 (ng/mL)/(mg/kg/day) and the Tlast [2, 18] was 24 h. For the same compound, the Cmax/D [2, 19] was 33.2 (ng/mL)/(mg/kg/day), the Tlast [2, 19] was 24 h and the RAUC [2, 19] was 1.24 ratio. The Cmax/D [2, 20] was 29.9 (ng/mL)/(mg/kg/day), the Tlast [2, 20] was 24 h and the RAUC [2, 20] was 0.882 ratio. The Cmax/D [2, 21] was 5.77 (ng/mL)/(mg/kg/day), the Tlast [2, 21] was 12 h and the RAUC [2, 21] was 0.12 ratio. For the same compound, the Cmax/D [2, 22] was 3.07 (ng/mL)/(mg/kg/day), the Tlast [2, 22] was 12 h and the RAUC [2, 22] was 0.0613 ratio. For the same compound, the Cmax/D [2, 23] was 38.8 (ng/mL)/(mg/kg/day), the Tlast [2, 23] was 24 h and the Cmax/D [2, 24] was 47.1 (ng/mL)/(mg/kg/day). For the same compound, the Tlast [2, 24] was 24 h, the RAUC [2, 24] was 1.3 ratio and the Cmax/D [2, 25] was 27.1 (ng/mL)/(mg/kg/day). For the same compound, the Tlast [2, 25] was 24 h, the RAUC [2, 25] was 0.898 ratio and the Cmax/D [2, 26] was 7.1 (ng/mL)/(mg/kg/day). The Tlast [2, 26] was 24 h, the RAUC [2, 26] was 0.187 ratio and the Cmax/D [2, 27] was 3.08 (ng/mL)/(mg/kg/day). For the same compound, the Tlast [2, 27] was 12 h, the RAUC [2, 27] was 0.0524 ratio and the Cmax/D [2, 28] was 37.3 (ng/mL)/(mg/kg/day). For the same compound, the Tlast [2, 28] was 24 h, the Cmax/D [2, 29] was 68.8 (ng/mL)/(mg/kg/day) and the Tlast [2, 29] was 24 h. The RAUC [2, 29] was 1.59 ratio, the Cmax/D [2, 30] was 34.1 (ng/mL)/(mg/kg/day) and the Tlast [2, 30] was 24 h. For the same compound, the RAUC [2, 30] was 0.944 ratio, the Cmax/D [2, 31] was 11.2 (ng/mL)/(mg/kg/day) and the Tlast [2, 31] was 24 h. For the same compound, the RAUC [2, 31] was 0.233 ratio, the Cmax/D [2, 32] was 2.98 (ng/mL)/(mg/kg/day) and the Tlast [2, 32] was 12 h. For the same compound, the RAUC [2, 32] was 0.0648 ratio, the AUC(0-t) [2, 3] was 43 ng·h/mL and the AUC(0-t) [2, 4] was 40.5 ng·h/mL. The AUC(0-t) [2, 6] was 4.66 ng·h/mL.
